Reference: PubChem BioAssay (NCI)
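A five-concentration, 48-hour dose response in 96-well plates underlies each endpoint, interpolated linearly between surrounding concentrations. At the GI50, growth is halved. The concentration for full growth arrest is given as TGI.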

Experiments:
Assay in all cases: NCI-60 cell line screen, 48 h
[1] = tested on: 786-0 renal
[2] = tested on: A498 renal
[3] = tested on: A549 NSCLC
[4] = tested on: ACHN renal
[5] = tested on: BT-549 breast
[6] = tested on: CAKI-1 renal
[7] = tested on: CCRF-CEM leukemia
[8] = tested on: COLO 205 colon
[9] = tested on: DU-145 prostate
[10] = tested on: EKVX NSCLC
[11] = tested on: HCC-2998 colon
[12] = tested on: HCT-116 colon
[13] = tested on: HCT-15 colon
[14] = tested on: HL-60(TB) leukemia
[15] = tested on: HOP-62 NSCLC
[16] = tested on: HOP-92 NSCLC
[17] = tested on: HT29 colon
[18] = tested on: IGROV1 ovarian
[19] = tested on: K-562 leukemia
[20] = tested on: KM12 colon
[21] = tested on: LOX IMVI melanoma
[22] = tested on: M14 melanoma
[23] = tested on: MALME-3M melanoma
[24] = tested on: MCF7 breast
[25] = tested on: MDA-MB-231 breast
[26] = tested on: MDA-MB-435
[27] = tested on: MOLT-4 leukemia
[28] = tested on: NCI-H226 lung
[29] = tested on: NCI-H460 lung
[30] = tested on: NCI-H522 lung
[31] = tested on: NCI/ADR-RES ovarian
[32] = tested on: OVCAR-3 ovarian
[33] = tested on: OVCAR-4 ovarian
[34] = tested on: OVCAR-5 ovarian
[35] = tested on: OVCAR-8 ovarian
[36] = tested on: PC-3 prostate
[37] = tested on: RPMI-8226 leukemia
[38] = tested on: RXF 393 renal
[39] = tested on: SF-268 CNS
[40] = tested on: SF-295 CNS
[41] = tested on: SF-539 CNS
[42] = tested on: SK-MEL-2 melanoma
[43] = tested on: SK-MEL-28 melanoma
[44] = tested on: SK-MEL-5 melanoma
[45] = tested on: SN12C renal
[46] = tested on: SNB-19 CNS
[47] = tested on: SNB-75 CNS
[48] = tested on: SR leukemia
[49] = tested on: SW-620 colon
[50] = tested on: T-47D breast
[51] = tested on: U251 CNS
[52] = tested on: UACC-257 melanoma
[53] = tested on: UACC-62 melanoma
[54] = tested on: UO-31 renal

Q: For `COc1cc(-c2ccc3ncnc(NCc4ccccc4)c3c2)cnc1OC`, which GI50 [1] is on record?
A: 2.99 µM

Q: What about the TGI [1] of the same compound?
A: > 100 µM

Q: What about the GI50 [2] of the same compound?
A: 1.78 µM

Q: And the TGI [2]?
A: 6.64 µM

Q: And the GI50 [3]?
A: 3.59 µM

Q: What about the TGI [3] of the same compound?
A: > 100 µM

Q: What about the GI50 [4] of the same compound?
A: 2.92 µM

Q: And the TGI [4]?
A: > 100 µM

Q: What about the GI50 [5] of the same compound?
A: 3.25 µM

Q: And the TGI [5]?
A: > 100 µM

Q: And the GI50 [6]?
A: 2.02 µM

Q: What about the TGI [6] of the same compound?
A: > 100 µM

Q: What about the GI50 [7] of the same compound?
A: 4 µM

Q: And the TGI [7]?
A: > 100 µM

Q: What about the GI50 [8] of the same compound?
A: 7.48 µM

Q: What about the TGI [8] of the same compound?
A: > 100 µM

Q: What about the GI50 [9] of the same compound?
A: 3.43 µM

Q: What about the TGI [9] of the same compound?
A: > 100 µM

Q: And the GI50 [10]?
A: 1.89 µM

Q: What about the TGI [10] of the same compound?
A: > 100 µM

Q: What about the GI50 [11] of the same compound?
A: 14.4 µM

Q: What about the TGI [11] of the same compound?
A: > 100 µM

Q: What about the GI50 [12] of the same compound?
A: 13.1 µM

Q: And the TGI [12]?
A: > 100 µM

Q: What about the GI50 [13] of the same compound?
A: 5.68 µM

Q: And the TGI [13]?
A: > 100 µM

Q: And the GI50 [14]?
A: 6.42 µM

Q: What about the TGI [14] of the same compound?
A: > 100 µM

Q: And the GI50 [15]?
A: 6.88 µM

Q: And the TGI [15]?
A: > 100 µM

Q: And the GI50 [16]?
A: 0.544 µM

Q: What about the TGI [16] of the same compound?
A: 4.82 µM

Q: And the GI50 [17]?
A: 5.02 µM

Q: And the TGI [17]?
A: > 100 µM

Q: And the GI50 [18]?
A: 1.03 µM

Q: What about the TGI [18] of the same compound?
A: 3.52 µM

Q: What about the GI50 [19] of the same compound?
A: 51 µM

Q: And the TGI [19]?
A: > 100 µM

Q: What about the GI50 [20] of the same compound?
A: 50.7 µM

Q: What about the TGI [20] of the same compound?
A: > 100 µM

Q: What about the GI50 [21] of the same compound?
A: 4.19 µM

Q: And the TGI [21]?
A: 27.4 µM

Q: What about the GI50 [22] of the same compound?
A: 16.4 µM

Q: What about the TGI [22] of the same compound?
A: > 100 µM

Q: What about the GI50 [23] of the same compound?
A: 9.59 µM

Q: What about the TGI [23] of the same compound?
A: > 100 µM

Q: And the GI50 [24]?
A: 0.658 µM

Q: What about the TGI [24] of the same compound?
A: 19 µM

Q: And the GI50 [25]?
A: 4.72 µM

Q: And the TGI [25]?
A: > 100 µM

Q: What about the GI50 [26] of the same compound?
A: 56 µM

Q: And the TGI [26]?
A: > 100 µM

Q: And the GI50 [27]?
A: 3.8 µM

Q: What about the TGI [27] of the same compound?
A: > 100 µM

Q: What about the GI50 [28] of the same compound?
A: 4.68 µM

Q: What about the TGI [28] of the same compound?
A: > 100 µM

Q: And the GI50 [29]?
A: 5.83 µM

Q: And the TGI [29]?
A: > 100 µM

Q: What about the GI50 [30] of the same compound?
A: 4.65 µM

Q: What about the TGI [30] of the same compound?
A: > 100 µM

Q: What about the GI50 [31] of the same compound?
A: 7.97 µM

Q: And the TGI [31]?
A: > 100 µM

Q: What about the GI50 [32] of the same compound?
A: 3.94 µM

Q: What about the TGI [32] of the same compound?
A: > 100 µM

Q: And the GI50 [33]?
A: 62.7 µM

Q: And the TGI [33]?
A: > 100 µM

Q: And the GI50 [34]?
A: 2.97 µM

Q: And the TGI [34]?
A: > 100 µM

Q: What about the GI50 [35] of the same compound?
A: 9.42 µM

Q: What about the TGI [35] of the same compound?
A: > 100 µM

Q: And the GI50 [36]?
A: 2.79 µM

Q: And the TGI [36]?
A: > 100 µM

Q: What about the GI50 [37] of the same compound?
A: 4.38 µM

Q: What about the TGI [37] of the same compound?
A: > 100 µM

Q: And the GI50 [38]?
A: 1.33 µM

Q: What about the TGI [38] of the same compound?
A: 6.1 µM

Q: What about the GI50 [39] of the same compound?
A: 6.43 µM

Q: What about the TGI [39] of the same compound?
A: > 100 µM

Q: What about the GI50 [40] of the same compound?
A: 3.83 µM

Q: What about the TGI [40] of the same compound?
A: > 100 µM

Q: And the GI50 [41]?
A: 4.8 µM

Q: And the TGI [41]?
A: > 100 µM

Q: And the GI50 [42]?
A: 19.5 µM

Q: What about the TGI [42] of the same compound?
A: > 100 µM

Q: What about the GI50 [43] of the same compound?
A: 9.68 µM

Q: What about the TGI [43] of the same compound?
A: > 100 µM

Q: And the GI50 [44]?
A: 10.7 µM

Q: What about the TGI [44] of the same compound?
A: > 100 µM

Q: What about the GI50 [45] of the same compound?
A: 3.74 µM

Q: What about the TGI [45] of the same compound?
A: > 100 µM

Q: And the GI50 [46]?
A: 9.33 µM

Q: What about the TGI [46] of the same compound?
A: > 100 µM

Q: What about the GI50 [47] of the same compound?
A: 0.655 µM

Q: What about the TGI [47] of the same compound?
A: 6.87 µM

Q: What about the GI50 [48] of the same compound?
A: 7.24 µM

Q: What about the TGI [48] of the same compound?
A: > 100 µM

Q: What about the GI50 [49] of the same compound?
A: 34.2 µM

Q: What about the TGI [49] of the same compound?
A: > 100 µM

Q: And the GI50 [50]?
A: 0.192 µM

Q: And the TGI [50]?
A: 2.82 µM

Q: What about the GI50 [51] of the same compound?
A: 77.3 µM

Q: What about the TGI [51] of the same compound?
A: > 100 µM

Q: What about the GI50 [52] of the same compound?
A: 69.8 µM

Q: What about the TGI [52] of the same compound?
A: > 100 µM

Q: And the GI50 [53]?
A: 2.97 µM

Q: What about the TGI [53] of the same compound?
A: > 100 µM

Q: What about the GI50 [54] of the same compound?
A: 1.45 µM

Q: And the TGI [54]?
A: > 100 µM
